The values that follow are results of earlier work, collected in patent publication US20150133410A1, “TOPICAL OPHTHALMIC, OTIC, AND NASAL COMPOSITIONS OF CIPROFLOXACIN” (priority 2013, published 2015).

Structures are written as SMILES. Like-named read-outs stand apart in the source and are kept apart here.

The conditions of this data set: aqueous solutions of about 0.2 to about 1 weight percent.

With `O=C(O)c1cn(C2CC2)c2cc(N3CCNCC3)c(F)cc2c1=O` [ciprofloxacin], the “pH above which crystalline precipitation of ciprofloxacin occurs” value is, setting by setting: (5° C.) “above 5”; (room temperature) “above 5.5”.
